Results as given in patent US20180207228A1, “PEPTIDE COMBINATIONS AND USES THEREOF FOR TREATING GRASS ALLERGY” (ALK-Abelló A/S, priority 2015, published 2018).
Where no end group is shown, it is not given here.

Columns and labels:
[1] = system: allergen specific T cells; test: T cell proliferation assay (72 h) on donor derived T cell lines (TCL02/TCL03); type: cell-based, human; settings: for Proliferation % donor coverage (TCL-02 DK1): T cell lines TCL-02 DK1, 30 donors, hit criteria SI>=2, CPM>=1000; for Proliferation strength (TCL-02 DK1): T cell lines TCL-02 DK1, strength of response (average relative magnitude)
Outline: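 CD8-depleted PBMCs from grass-allergic donors stimulated with natural grass allergen mix (nPhl p 1 0.5 μg/ml) to raise T cell lines; restimulated with irradiated APCs, allergens or PHA-P (0.5 μg/ml) plus rIL-2. Proliferation to overlapping 20-mer and selected 15-mer grass peptides tested with TCL02 (day 24) or TCL03 (day 34).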

[2] = system: release of IL-5 upon T cell activation; test: Fluorospot assay, IL-5 release (DK1-TCL01, US1-TCL01); type: cell-based, human; settings: head prints TCL-02 DK1; text: 25 TCL-01 DK1 lines
Outline: (§1)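 Grass-allergic donors' CD8-depleted PBMCs were expanded 14 days with natural grass allergens plus IL-2 to give TCL01 lines. These were incubated 20 h at 37° C with single peptides or peptide mixes at 2 μg/ml, and spot-forming cells were counted. Hit: SI≥2, p≤0.05, Poisson ≤0.05, ≥20 SFC/10^6 cells.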

[3] = system: release of IFN-γ upon T cell activation; test: Fluorospot assay, IFN-γ release (DK1-TCL01, US1-TCL01); type: cell-based, human; settings: head prints TCL-02 DK1; 17 TCL-01 DK1 lines
Outline: as §1

[4] = target: 25 HLA Class II alleles (purified class II MHC molecules); test: competitive radiolabelled-peptide binding to purified HLA class II (25 alleles, binder if IC50 <300 nM); worldwide phenotypic coverage of the alleles found to bind

| Molecule | Proliferation % donor coverage (TCL-02 DK1) [1] [%] | Proliferation strength (TCL-02 DK1) [1] | IL-5-Fluorospotr % donor coverage (TCL-02 DK1) [2] [%] | IFN-gamma % donor coverage (TCL-02 DK1) [3] [%] | Measured binding coverage 25 alleles [4] [%] |
| --- | --- | --- | --- | --- | --- |
| GRRHSVRIRVRSGGHDYEGL-OH [compound 51] | 10.00 | 0.40 | 0.00 | 0.00 | – |
| CC(C)[C@H](NC(=O)[C@H](C)NC(=O)[C@H](C)NC(=O)[C@H](CCCCN)NC(=O)[C@@H](N)Cc1ccccc1)C(=O)N[C@@H](C)C(=O)N[C@@H](C)C(=O)N[C@@H](C)C(=O)N[C@@H](C)C(=O)NCC(=O)N[C@@H](C)C(=O)N1CCC[C@H]1C(=O)N1CCC[C@H]1C(=O)N[C@@H](C)C(=O)N[C@@H](CC(=O)O)C(=O)O [compound 133] | 31.03 | 4.70 | 21.74 | 0.00 | – |
| AEPAGKATTEEQKLIEKINA-OH [compound 74] | 10.00 | 1.50 | 4.00 | 0.00 | – |
| TATYGSKWLEARATFYGSNP-OH [compound 90] | 26.67 | 3.50 | 12.00 | 4.00 | – |
| VKYEGDTMAEVELREHGSDE-OH [compound 32] | 6.67 | 0.20 | 0.00 | 0.00 | – |
| AIGDKPGPNITATYGSKWLE-OH [compound 89] | 6.67 | 1.10 | 0.00 | 0.00 | – |
| ELTLQFRRVKSKYPSGTKIT-OH [compound 102] | 33.33 | 4.70 | 4.00 | 8.00 | – |
| EPIFKDGLGSRASYEIKSKE-OH [compound 95] | 20.00 | 2.20 | 0.00 | 4.00 | – |
| GRGSGSSFEIKSTKPEASSG-OH [compound 2] | 26.67 | 3.10 | 12.00 | 4.00 | – |
| PYVSKNPRQAYANYRDIDLG-OH [compound 56] | 20.00 | 3.10 | 0.00 | 4.00 | – |
| GDEQKLRSAGELELQFRRVK-OH [compound 6] | 46.67 | 7.10 | 20.00 | 4.00 | – |
| AGELELQFRRVKSKYPEGTK-OH [compound 7] | 40.00 | 8.10 | 28.00 | 4.00 | – |
| AYKTAEGATPEAKYDAYVAT-OH [compound 79] | 26.67 | 3.30 | 0.00 | 0.00 | – |
| TKKGNVWEVKSSKPLVGPFN-OH [compound 38] | 50.00 | 6.60 | 24.00 | 4.00 | – |
| EQKLIEKINAGFKAALAAAA [peptide 229 (Phl p 5, 21)] | – | – | – | – | 98 |
| VRYTTEGGTKTEAEDVIPEG [peptide 212 (Phl p 1, 211)] | – | – | – | – | 40 |
| FAVVDLNKMRAVWVDGKART [peptide 224 (Phl p 4, 101)] | – | – | – | – | 99 |
| TEAEDVIPEGWKADTSYESK [peptide 213 (Phl p 1, 221)] | – | – | – | – | 58 |
| GRGSGSSFEIKSTKPEASSG [peptide 202 (Phl p 1, 66)] | – | – | – | – | 84 |
| EIKSTKPEASSGEPVVVHIT [peptide 203 (Phl p 1, 74)] | – | – | – | – | 71 |
| VATLSEALRIIAGTLEVHAV [peptide 234 (Phl p 5, 111)] | – | – | – | – | 94 |
| TDDNEEPIAPYHFDLSGHAF [peptide 204 (Phl p 1, 93)] | – | – | – | – | 78 |

| Molecule | Proliferation % donor coverage (TCL-02 DK1) [1] [%] | Proliferation strength (TCL-02 DK1) [1] | IL-5-Fluorospotr % donor coverage (TCL-02 DK1) [2] [%] | IFN-gamma % donor coverage (TCL-02 DK1) [3] [%] | Measured binding coverage 25 alleles [4] [%] |
| --- | --- | --- | --- | --- | --- |
| TSKLDAAYKLAYKTAEGATP [peptide 232 (Phl p 5, 84)] | – | – | – | – | 93 |
| HGSEEWEPLTKKGNVWEVKS [peptide 218 (Phl p 3, 38)] | – | – | – | – | 39 |
| KEDFLGSLVKEIPPRLLYAK [peptide 222 (Phl p 4, 8)] | – | – | – | – | 100 |
| AGYTPAAPAGAEPAGKATTE [peptide 228 (Phl p 5, 1)] | – | – | – | – | 69 |
| WGAIWRIDTPDKLTGPFTVR [peptide 211 (Phl p 1, 193)] | – | – | – | – | 90 |
| GFKAALAAAAGVPPADKYRT [peptide 230 (Phl p 5, 31)] | – | – | – | – | 92 |
| EAKYDAYVATLSEALRIIAG [peptide 233 (Phl p 5, 104)] | – | – | – | – | 99 |
| TKKGNVWEVKSSKPLVGPFN [peptide 219 (Phl p 3, 47)] | – | – | – | – | 91 |
| KDKWIELKESWGAIWRIDTP [peptide 210 (Phl p 1, 183)] | – | – | – | – | 92 |
| GSDPKKLVLNIKYTRPGDSL [peptide 217 (Phl p 3, 11)] | – | – | – | – | 98 |
| TPFPHRKGVLFNIQYVNYWF [peptide 227 (Phl p 4, 386)] | – | – | – | – | 97 |
| PANDKFTVFEAAFNNAIKAS [peptide 237 (Phl p 5, 166)] | – | – | – | – | 99 |
| EPLQGPFNFRFLTEKGMKNV [peptide 216 (Phl p 2, 58)] | – | – | – | – | 92 |
| KSSKPLVGPFNFRFMSKGGM [peptide 220 (Phl p 3, 56)] | – | – | – | – | 96 |
| STGGAYESYKFIPALEAAVK [peptide 238 (Phl p 5, 185)] | – | – | – | – | 99 |
| SMGDDHFWAVRGGGGESFGI [peptide 226 (Phl p 4, 195)] | – | – | – | – | 57 |
| GFGMLLRKYGIAAENVIDVK [peptide 225 (Phl p 4, 163)] | – | – | – | – | 98 |
| WLDAKSTWYGKPTGAGPKDN [peptide 201 (Phl p 1, 18)] | – | – | – | – | 47 |
| DKYRTFVATFGAASNKAFAE [peptide 231 (Phl p 5, 46)] | – | – | – | – | 99 |
| YIITPTNVSHIQSAVVSGRR [peptide 223 (Phl p 4, 55)] | – | – | – | – | 99 |
| EWVAMTKGEGGVWTFDSEEP [peptide 214 (Phl p 2, 40)] | – | – | – | – | 81 |
